Consider two compounds from US9315859B2, “DDAO compounds as fluorescent reference standards” (LIFE TECHNOLOGIES CORPORATION, priority 2010, dated 2016).

Format in all cases: physicochemical
A short description of data set [1]: Resilience to harsh oxidation: free dye with benzoyl peroxide, fluorescence decay. The settings on record: about 1 μM free dye in Tris-EDTA buffer/MeOH, 5 μl 0.5M benzoyl peroxide in acetonitrile per 1 ml, read at 5 minute intervals, compared with ROX. The protocol:
Regarding chemical stability, DDAO congeners appear to have resilience under various conditions, such as oxidation, photo-degradation, and the like. For example, regarding resilience to harsh oxidation, DDAO, Sulfo-DDAO, and ROX were each suspended as free dyes in a solution of 1.4 of Tris-EDTA buffer (1× stock concentration) in MeOH at a concentration of approximately 1 μM. Five μl of 0.5M benzoyl peroxide in acetonitrile was added to 1 ml of the dye composition in a fluorimeter cuvette. Fluorescence emission intensity was measured at each dye's emission maximum immediately, and then at 5 minute intervals. A first-order exponential curve was fit to the data to calculate the decay rate for each dye. FIG. 7 is a graph showing the results of that experiment. […] As such, the reference dyes of formula (I) can be used in assays in which the assay components might come in contact with oxidants.

Data set [2] can be described thus: Normalized fluorescent emission as a function of temperature. Conditions: signals normalized to the 94° C. data point; compared with 6-FAM and ROX. The protocol: FIG. 6 depicts a graph of normalized fluorescent emission as a traction of temperature for Sulfo-DDAO in comparison to a reporter dye, 6-FAM, as well as a reference dye, ROX. Given the difference in brightness of the dyes shown, each data point for each curve was adjusted using an internal reference point taken from the 94° C. data point for that data set. In that regard, the fluorescence signals are normalized to give equal intensities at 94 C so that their relative changes with temperature can be easily compared. […] This attribute may be useful when, for example, dye calibration they be one at a different temperature from a run temperature, or could be useful for normalizing experimental variations as previously discussed.

Data set [3] in a line: Stability of reference dye incubated in TaqMan Universal PCR Master Mix, judged by Ct values. The settings on record: room temperature in TaqMan Universal PCR Master Mix, 1 day to 4 weeks; consistent Ct values. The protocol: FIG. 11 depicts the stability of Sulfo-DDAO in a master mix, and incubated with various additional additives. Sulfo-DDAO was incubated in TaqMan® Universal PCR Master Mix at room temperature for 1 day, 1 week, 2 weeks, or 4 weeks. At each designated time point, fixed quantities of various, different target polynucleotides and various dye-labeled TaqMan® probes, were added. The target/probe mixtures were PCR amplified in a 96 well plate and the signals recorded after each amplification cycle to generate an amplification count from which a Ct value was determined for each target/probe mixture, using Sulfo-DDAO as a reference dye. FIG. 11 is a graph showing the results of that experiment, with the Ct values plotted for each time point. The Sulfo-DDAO signal was stable at room temperature in TaqMan® Universal PCR Master Mix for up to 4 weeks, as evidenced by the consistent Ct values obtained at different incubation times for the different target/probe mixtures, using Sulfa-DDAO as a reference dye.

Molecules are shown by their SMILES.

As to `CC1(C)C2=C(Cl)C(=O)C(Cl)=CC2=Nc2ccc(O)cc21` [DDAO, 1,3-dichloro-7-hydroxy-9,9-dimethylacridin-2(9H)-one], the “resilience to oxidation (fluorescence emission decay)” value in data set [1] is “show resilience to oxidation”.

Take `CC1(C)C2=C(Cl)C(=O)C(Cl)=CC2=Nc2cc(S(=O)(=O)O)c(O)cc21` [Sulfo-DDAO, 6,8-dichloro-2-hydroxy-9,9-dimethyl-7-oxo-7,9-dihydroacridine-3-sulfonic acid]: the “resilience to oxidation (fluorescence emission decay)” value in data set [1] is given as “show resilience to oxidation”. Also, the “stability of fluorescence emission across temperature” value in data set [2] is “fairly stable”. Further, in data set [3], the “stability of reference dye signal in master mix” value was “stable”.
